Assay results taken from PubChem BioAssay (NCI).
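96-well plates; 48 h exposure; 5 concentrations. Endpoints by linear interpolation between flanking doses. Not reached: highest tested concentration assigned. TGI: total growth inhibition.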

Legend:
Assay in all cases: DTP human tumour cell line panel, 48 h
786-0 renal = tested on: 786-0 renal
A498 renal = tested on: A498 renal
A549 NSCLC = tested on: A549 NSCLC
ACHN renal = tested on: ACHN renal
CAKI-1 renal = tested on: CAKI-1 renal
CCRF-CEM leukemia = tested on: CCRF-CEM leukemia
COLO 205 colon = tested on: COLO 205 colon
DU-145 prostate = tested on: DU-145 prostate
EKVX NSCLC = tested on: EKVX NSCLC
HCT-116 colon = tested on: HCT-116 colon
HCT-15 colon = tested on: HCT-15 colon
HL-60(TB) leukemia = tested on: HL-60(TB) leukemia
HOP-62 NSCLC = tested on: HOP-62 NSCLC
HOP-92 NSCLC = tested on: HOP-92 NSCLC
HS 578T breast = tested on: HS 578T breast
HT29 colon = tested on: HT29 colon
IGROV1 ovarian = tested on: IGROV1 ovarian
K-562 leukemia = tested on: K-562 leukemia
KM12 colon = tested on: KM12 colon
LOX IMVI melanoma = tested on: LOX IMVI melanoma
M14 melanoma = tested on: M14 melanoma
MALME-3M melanoma = tested on: MALME-3M melanoma
MCF7 breast = tested on: MCF7 breast
MDA-MB-231 breast = tested on: MDA-MB-231 breast
MDA-MB-435 = tested on: MDA-MB-435
MDA-N = tested on: MDA-N
MOLT-4 leukemia = tested on: MOLT-4 leukemia
NCI-H226 lung = tested on: NCI-H226 lung
NCI-H23 lung = tested on: NCI-H23 lung
NCI-H460 lung = tested on: NCI-H460 lung
NCI-H522 lung = tested on: NCI-H522 lung
NCI/ADR-RES ovarian = tested on: NCI/ADR-RES ovarian
OVCAR-3 ovarian = tested on: OVCAR-3 ovarian
OVCAR-4 ovarian = tested on: OVCAR-4 ovarian
OVCAR-5 ovarian = tested on: OVCAR-5 ovarian
OVCAR-8 ovarian = tested on: OVCAR-8 ovarian
PC-3 prostate = tested on: PC-3 prostate
RPMI-8226 leukemia = tested on: RPMI-8226 leukemia
RXF 393 renal = tested on: RXF 393 renal
SF-268 CNS = tested on: SF-268 CNS
SF-295 CNS = tested on: SF-295 CNS
SF-539 CNS = tested on: SF-539 CNS
SK-MEL-2 melanoma = tested on: SK-MEL-2 melanoma
SK-MEL-28 melanoma = tested on: SK-MEL-28 melanoma
SK-MEL-5 melanoma = tested on: SK-MEL-5 melanoma
SK-OV-3 ovarian = tested on: SK-OV-3 ovarian
SN12C renal = tested on: SN12C renal
SNB-19 CNS = tested on: SNB-19 CNS
SNB-75 CNS = tested on: SNB-75 CNS
SR leukemia = tested on: SR leukemia
SW-620 colon = tested on: SW-620 colon
TK-10 renal = tested on: TK-10 renal
U251 CNS = tested on: U251 CNS
UACC-257 melanoma = tested on: UACC-257 melanoma
UACC-62 melanoma = tested on: UACC-62 melanoma
UO-31 renal = tested on: UO-31 renal

Measured: TGI

CN(CC(=O)O)c1ncc2c(n1)-c1ccccc1CC2
> 100 µM: 786-0 renal | A498 renal | A549 NSCLC | ACHN renal | CAKI-1 renal | CCRF-CEM leukemia | COLO 205 colon | DU-145 prostate | EKVX NSCLC | HCT-116 colon | HCT-15 colon | HL-60(TB) leukemia | HOP-62 NSCLC | HOP-92 NSCLC | HS 578T breast | HT29 colon | IGROV1 ovarian | K-562 leukemia | KM12 colon | LOX IMVI melanoma | M14 melanoma | MALME-3M melanoma | MCF7 breast | MDA-MB-231 breast | MDA-MB-435 | MDA-N | MOLT-4 leukemia | NCI-H226 lung | NCI-H23 lung | NCI-H460 lung | NCI-H522 lung | NCI/ADR-RES ovarian | OVCAR-3 ovarian | OVCAR-4 ovarian | OVCAR-5 ovarian | OVCAR-8 ovarian | PC-3 prostate | RPMI-8226 leukemia | RXF 393 renal | SF-268 CNS | SF-295 CNS | SF-539 CNS | SK-MEL-2 melanoma | SK-MEL-28 melanoma | SK-MEL-5 melanoma | SK-OV-3 ovarian | SN12C renal | SNB-19 CNS | SNB-75 CNS | SR leukemia | SW-620 colon | TK-10 renal | U251 CNS | UACC-257 melanoma | UACC-62 melanoma | UO-31 renal
